Numbered stars: 1 amine (or outer) side, 2 acyl side, 3 side chain; on linkers, the order of the positions; unused ones are H or OH. Square brackets hold non-standard residues; d marks the D form. Side chains are listed from the residue outwards. Peptide text beside a SMILES is read from it. * marks the point of attachment. X10 = O=C(CN1CCN2CCN3CCN(CC1)CC(=O)[O][Lu]([O]C(=O)C2)[O]C(=O)C3)NCC12CCC(C(=O)*)(CC1)CC2; X14 = O=C(CN1CCN2CCN3CCN(CC1)CC(=O)[O][Lu]([O]C(=O)C2)[O]C(=O)C3)NCC1CCC(C(=O)*)CC1; X12 = O=C1CN2CCN3CCN(CC(=O)N4CCC(CC(=O)*)CC4)CCN(CC2)CC(=O)[O][Lu]([O]1)[O]C(=O)C3; X24 = O=C1CN2CCN3CCN(CC(=O)N4CC(CC(=O)*)C4)CCN(CC2)CC(=O)[O][Lu]([O]1)[O]C(=O)C3; DOTA(Lu) = O=C1CN2CCN3CCN(CC(=O)*)CCN(CC2)CC(=O)[O][Lu]([O]1)[O]C(=O)C3; X7 = O=C1CN2CCN3CCN(CC2)[C@H](CCC(=O)*)C(=O)[O][Ga]([O]1)[O]C(=O)C3; Ala(piperidin-4-yl) = O=C([C@H](CC1CCN([*:3])CC1)N[*:1])[*:2]; DOTA = O=C(O)CN1CCN(CC(=O)O)CCN(CC(=O)*)CCN(CC(=O)O)CC1; dTrp(βS-Me) = C[C@@H](c1c[nH]c2ccccc12)[C@@H](N)C(=O)O; X11 = O=C1CN2CCN(CCN(CC(=O)*)CC2)CC(=O)[O][Ga+][O]1; X8 = O=C([C@@H](Cc1n[nH]c2ccccc12)N[*:1])[*:2]; Ethylenediamine = C(CN[*:2])N[*:1]; NMeLys(Me) = CNCCCC[C@H](NC)C(=O)O; Hyp = O=C(O)[C@@H]1C[C@@H](O)CN1; Trx = NC[C@H]1CC[C@H](C(=O)O)CC1; NMeK = CN[C@@H](CCCCN)C(=O)O; CO = O=C([*:1])[*:2]; Bn = c1ccc(C*)cc1 Where only a bound is given, the exact number is not on record here.

The target in one assay is SSTR2 (Homo sapiens, UniProt P30874). As to the kind of experiment: SSTR binding affinity by radioligand binding competition assay ([125I]-Tyr11-Somatostatin, membrane extracts). The following applies: radioligand competition, [125I]-Tyr11-Somatostatin 0.1 nM, membrane extracts; Ki from IC50 by Cheng Prusoff; read-out: SSTR2 Ki. Background: In a radioligand displacement assay an active substance lowers the binding of a labelled ligand.
Chain of SSTR2 (P30874 whole entry): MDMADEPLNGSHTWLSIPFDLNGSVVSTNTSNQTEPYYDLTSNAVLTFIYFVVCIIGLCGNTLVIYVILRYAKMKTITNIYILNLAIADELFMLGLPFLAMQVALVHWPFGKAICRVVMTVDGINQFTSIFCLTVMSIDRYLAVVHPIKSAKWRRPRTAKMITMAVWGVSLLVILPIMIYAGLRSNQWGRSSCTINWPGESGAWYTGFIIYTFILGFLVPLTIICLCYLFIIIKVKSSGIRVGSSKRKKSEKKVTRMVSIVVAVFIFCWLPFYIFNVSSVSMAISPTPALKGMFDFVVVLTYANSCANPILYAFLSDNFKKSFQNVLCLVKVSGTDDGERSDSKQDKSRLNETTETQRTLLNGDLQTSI
As a reminder, the Ki is a measure of affinity in units of concentration, obtained from inhibition or displacement. Regarding `C[C@@H](O)[C@@H]1NC(=O)[C@H](CC2CCNCC2)NC(=O)[C@@H]([C@@H](C)c2c[nH]c3ccccc23)NC(=O)[C@H](Cc2ccc(O)cc2)NC(=O)[C@H](CCCCNC(=O)CC2CCN(C(=O)CN3CCN4CCN5CCN(CC3)CC(=O)[O][Lu]([O]C(=O)C5)[O]C(=O)C4)CC2)N(C)C(=O)[C@H](Cc2ccccc2)NC1=O` [RB-0006458] (cyclo(F[NMeK](X12)Y[dTrp(βS-Me)][Ala(piperidin-4-yl)]T)), the Ki is 3.33 to 10 nM.

With `C[C@@H](O)[C@@H]1NC(=O)[C@H](CC2CCNCC2)NC(=O)[C@@H]([C@@H](C)c2c[nH]c3ccccc23)NC(=O)[C@H](Cc2ccc(O)cc2)NC(=O)[C@H](CCCCNC(=O)CC2CN(C(=O)CN3CCN4CCN5CCN(CC3)CC(=O)[O][Lu]([O]C(=O)C5)[O]C(=O)C4)C2)N(C)C(=O)[C@H](Cc2ccccc2)NC1=O` [RB-0006461] (cyclo(F[NMeK](X24)Y[dTrp(βS-Me)][Ala(piperidin-4-yl)]T)), the Ki fell in the range of 3.33 to 10 nM.

On to `C[C@@H](O)[C@@H]1NC(=O)[C@H](CC2CCNCC2)NC(=O)[C@@H]([C@@H](C)c2c[nH]c3ccccc23)NC(=O)[C@H](Cc2ccc(O)cc2)NC(=O)[C@H](CCCCNC(=O)C2CCC(CNC(=O)CN3CCN4CCN5CCN(CC3)CC(=O)[O][Lu]([O]C(=O)C4)[O]C(=O)C5)CC2)N(C)C(=O)[C@H](Cc2ccccc2)NC1=O` (some centres unmarked) [RB-0006464] (cyclo(F[NMeK](X14)Y[dTrp(βS-Me)][Ala(piperidin-4-yl)]T)), for which the Ki lay in the range of 1 to 3.33 nM.

Take `C[C@@H](O)[C@@H]1NC(=O)[C@H](CC2CCNCC2)NC(=O)[C@@H]([C@@H](C)c2c[nH]c3ccccc23)NC(=O)[C@H](Cc2ccc(O)cc2)NC(=O)[C@H](CCCCNC(=O)[C@H]2CC[C@H](CNC(=O)CC[C@@H]3C(=O)[O][Ga]4[O]C(=O)CN5CCN(CCN3CC5)CC(=O)[O]4)CC2)N(C)C(=O)[C@H](Cc2ccccc2)NC1=O` [RB-0006470] (cyclo(F[NMeK]([Trx-X7])Y[dTrp(βS-Me)][Ala(piperidin-4-yl)]T)): the Ki lay within 1 to 3.33 nM.

On to `C[C@@H](O)[C@@H]1NC(=O)[C@H](CC2CCNCC2)NC(=O)[C@@H]([C@@H](C)c2c[nH]c3ccccc23)NC(=O)[C@H](Cc2ccc(O)cc2)NC(=O)[C@H](CCCCNC(=O)CCC2C(=O)[O][Ga]3[O]C(=O)CN4CCN(CCN2CC4)CC(=O)[O]3)N(C)C(=O)[C@H](Cc2ccccc2)NC1=O` (some centres unmarked) [RB-0006476], for which the Ki was 3.33 to 10 nM.

For the compound `C[C@@H](O)[C@@H]1NC(=O)[C@H](CC2CCNCC2)NC(=O)[C@@H]([C@@H](C)c2c[nH]c3ccccc23)NC(=O)[C@H](Cc2ccc(O)cc2)NC(=O)[C@H](CCCCNC(=O)CN2CCN3CCN(CC2)CC(=O)[O][Ga+][O]C(=O)C3)N(C)C(=O)[C@H](Cc2ccccc2)NC1=O` [RB-0006488] (cyclo(F[NMeK](X11)Y[dTrp(βS-Me)][Ala(piperidin-4-yl)]T)), the Ki fell in the range of 1 to 3.33 nM.

With `C[C@@H](O)[C@@H]1NC(=O)[C@H](CC2CCNCC2)NC(=O)[C@@H](Cc2n[nH]c3ccccc23)NC(=O)[C@H](Cc2ccc(O)cc2)NC(=O)[C@H](CCCCNC(=O)CN2CCN3CCN4CCN(CC2)CC(=O)[O][Lu]([O]C(=O)C3)[O]C(=O)C4)N(C)C(=O)[C@H](Cc2ccccc2)NC1=O` [RB-0006553] (cyclo(F[NMeK](DOTA(Lu))Y[X8][Ala(piperidin-4-yl)]T)), the Ki is 10 to 33.3 nM.

`C[C@@H](O)[C@@H]1NC(=O)[C@H](CC2CCNCC2)NC(=O)[C@@H]([C@@H](C)c2c[nH]c3ccccc23)NC(=O)[C@H](Cc2ccc(O)cc2)NC(=O)[C@H](CCCCNC(=O)C23CCC(CNC(=O)CN4CCN5CCN6CCN(CC4)CC(=O)[O][Lu]([O]C(=O)C5)[O]C(=O)C6)(CC2)CC3)N(C)C(=O)[C@H](Cc2ccccc2)NC1=O` [RB-0006558] (cyclo(F[NMeK](X10)Y[dTrp(βS-Me)][Ala(piperidin-4-yl)]T)): the Ki is below 1 nM.

On to `C[C@@H](O)[C@@H]1NC(=O)[C@H](CC2CCNCC2)NC(=O)[C@@H]([C@@H](C)c2c[nH]c3ccccc23)NC(=O)[C@H](Cc2ccc(O)cc2)NC(=O)[C@H](CCCCN(C)C(=O)CN2CCN3CCN4CCN(CC2)CC(=O)[O][Lu]([O]C(=O)C4)[O]C(=O)C3)N(C)C(=O)[C@H](Cc2ccccc2)NC1=O` [RB-0006579] (cyclo(F[NMeLys(Me)](DOTA(Lu))Y[dTrp(βS-Me)][Ala(piperidin-4-yl)]T)), for which the Ki lay within 3.33 to 10 nM.

`C[C@@H](O)[C@@H]1NC(=O)[C@H](CC2CCNCC2)NC(=O)[C@@H]([C@@H](C)c2c[nH]c3ccccc23)NC(=O)[C@H](Cc2ccc(O)cc2)NC(=O)[C@H](CCCCn2cc(CNC(=O)CN3CCN4CCN5CCN(CC3)CC(=O)[O][Lu]([O]C(=O)C4)[O]C(=O)C5)nn2)N(C)C(=O)[C@H](Cc2ccccc2)NC1=O` [RB-0006591]: the Ki lay within 3.33 to 10 nM.

The assay is the same for the next values; noted with them: read-out: SSTR2 Ki; radioligand competition, [125I]-Tyr11-Somatostatin 0.1 nM, membrane extracts; Ki from IC50 by Cheng Prusoff.
Consider `C[C@@H](c1c[nH]c2ccccc12)[C@H]1NC(=O)[C@H](Cc2ccc(O)cc2)NC(=O)[C@@H]2C[C@@H](OC(=O)NCCNC(=O)CN3CCN(CC(=O)O)CCN(CC(=O)O)CCN(CC(=O)O)CC3)CN2C(=O)[C@H](Cc2ccccc2)NC(=O)[C@H](Cc2ccc(OCc3ccccc3)cc2)NC(=O)[C@H](CC2CCNCC2)NC1=O` [RB-0006393] (cyclo(F[Hyp]([CO-Ethylenediamine-DOTA])Y[dTrp(βS-Me)][Ala(piperidin-4-yl)]Y(Bn))), for which the Ki is below 1 nM.

These data come from patent US20250222146A1, “Radiopharmaceuticals Targeting Somatostatin Receptor 2 and Uses Thereof” (RayzeBio, Inc., priority 2023, published 2025).
